Reference: patent US10501453B2, “Benzothiazole or benzoxazole compounds as SUMO activators” (Icahn School of Medicine at Mount Sinai, priority 2012, dated 2019)

How the values were obtained:
NCI-60 human tumor cell = NCI-60 human tumor cell screen; assay type: cell-based; settings: NCI-60 set
Description: The NCI-60 human tumor cell screen used by the National Cancer Institute's Developmental Therapeutics Program was performed on Example 1. The NCI-60 set includes leukemia, lymphomas, and carcinomas of ovarian, renal, breast, prostate, colon, lung and CNS origin.

[1] = Pharmacokinetic analysis in mice; settings: mouse, in vivo, ip; murine model, 10 mg/kg intraperitoneal dose
Description: FIG. 12 depicts the pharmacokinetic analysis of the compound of Example 1 in mice at a 10 mg/kg intraperitoneal dose.

SERCA2a = assay: Endogenous SERCA2a SUMOylation profiling and protein expression in ARVMs; assay type: cell-based, rat
Description: Calcium-tolerant adult rat ventricular myocytes (ARVMs) were obtained from hearts of male Sprague-Dawley rats (250 to 300 g). The heart was excised and perfused with a standard enzymatic technique. ARVMs were plated on multi-chambered plates or culture dishes, pre-coated with laminin 2 μg/cm^2, at a density of 10^5 cells/cm^2 in DMEM without L-glutamine supplemented with 10 mmol/l HEPES, 3.7 mg/ml NaHCO3, 1 mg/ml glucose, 0.11 mg/ml sodium pyruvate, 2 mg/ml bovine serum albumin, 2 mmol/1 L-camitine, 5 mmol/1 creatine, 5 mmol/1 taurine, 1% penicillin-streptomycin, and 1% gentamycin. Following isolation, cells were allowed to settle for 1 hour. Cultures were incubated at 37° C., in an atmosphere of 5% CO2-95% air. Fresh medium was added gently as medium was being drawn off until the cultures had been thoroughly washed. Only quiescent, rod-shape cardiac myocytes were selected for IonOptix experiments.
Equal amounts of protein from either small molecule treated or DMSO treated cells or immunoprecipitates were resolved by 7.5% SDS-PAGE and transferred to nitrocellulose membranes (Bio-Rad, catalog no. 162-0112). The membranes were blocked for 1 hour at room temperature with 5% non-fat milk (Cell Signaling Technology Inc., catalog no. 9999) in TBST (10 mM Tris-HCl, 150 mM NaCl, and 0.05% tween-20, pH 8.0). […]
The effects of the Example compound was examined on isolated rat cardiomyocytes shortening and relaxation parameters. […] Effects of Example 1 on mechanical properties of the ARVMs were assessed using a video-based edge detection system (IonOptix). The time constant of the increase of force during the stretch decreased (tau), percentage of peak shortening (PS), maximal rate of relaxation and contraction were analyzed at 24 hrs postincubation of the compounds in culture media (N=10 ARVMs). The mechanical data were analyzed with student's t-test (FIG. 2A, P<0.05 compared to the DMSO treated cells). SERCA2a SUMOylation profiling was analyzed in a same set of ARVMs (FIG. 2B, WCL, whole cell lysates; S-SERCA2a, SUMOylated SERCA2a). […]

SUMO E1 enzyme = molecular target: T1, SUMO E1 enzyme (Homo sapiens, UniProt Q9UBT2); assay: Thioester formation between SUMO-1 and SUMO E1 enzyme (gel-based assay); assay type: biochemical
T1 sequence (Q9UBT2 1-640): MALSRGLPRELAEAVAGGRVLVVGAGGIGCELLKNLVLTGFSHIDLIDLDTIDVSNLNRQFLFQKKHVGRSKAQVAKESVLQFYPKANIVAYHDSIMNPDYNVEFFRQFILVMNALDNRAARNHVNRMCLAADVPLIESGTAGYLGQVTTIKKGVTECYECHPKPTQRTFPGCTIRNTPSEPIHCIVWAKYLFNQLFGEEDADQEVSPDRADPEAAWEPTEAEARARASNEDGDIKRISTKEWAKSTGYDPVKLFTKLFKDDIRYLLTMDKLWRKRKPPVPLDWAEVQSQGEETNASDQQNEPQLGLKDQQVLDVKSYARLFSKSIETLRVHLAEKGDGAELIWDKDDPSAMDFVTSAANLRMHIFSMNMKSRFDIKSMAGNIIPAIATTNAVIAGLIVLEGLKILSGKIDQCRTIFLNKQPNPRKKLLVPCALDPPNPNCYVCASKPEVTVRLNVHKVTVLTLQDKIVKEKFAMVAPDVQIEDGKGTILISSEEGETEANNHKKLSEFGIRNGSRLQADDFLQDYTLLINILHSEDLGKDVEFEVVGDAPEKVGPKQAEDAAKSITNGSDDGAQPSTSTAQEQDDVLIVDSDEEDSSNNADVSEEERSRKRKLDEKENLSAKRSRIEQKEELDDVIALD
T1 sequence (Q9UBE0 1-346): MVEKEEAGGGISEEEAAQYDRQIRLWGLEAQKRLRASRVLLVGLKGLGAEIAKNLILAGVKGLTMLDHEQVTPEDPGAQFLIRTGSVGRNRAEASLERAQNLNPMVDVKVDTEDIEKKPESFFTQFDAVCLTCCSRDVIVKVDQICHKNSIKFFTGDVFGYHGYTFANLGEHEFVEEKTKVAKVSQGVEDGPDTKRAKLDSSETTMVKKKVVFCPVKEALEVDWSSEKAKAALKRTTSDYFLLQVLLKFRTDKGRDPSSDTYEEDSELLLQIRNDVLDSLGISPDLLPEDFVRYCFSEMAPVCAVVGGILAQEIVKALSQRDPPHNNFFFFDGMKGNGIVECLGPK

SMILES: COc1ccc(-c2nnc(Nc3nc4c(OC)cccc4s3)o2)cc1 [Example 1, N-(4-methoxybenzo[d]thiazol-2-yl)-5-(4-methoxyphenyl)-1,3,4-oxadiazol-2-amine]
- cancer cell growth and proliferation (NCI-60 human tumor cell): did not induce cancer cell growth and proliferation
- Cmax [1]: 2240 nM
- half-life [1]: 1.09 h
- levels of SERCA2a SUMOylation with increasing amount of compound (SERCA2a; dose response): increased levels of SERCA2a SUMOylation
- protein expression levels of E1, E2 enzymes, SERCA2a and SUMO-1 (SERCA2a; dose response): not changed
- endogenous SERCA2a SUMOylation (SERCA2a; isolated rodent adult cardiomyocytes): significantly increased
- EC50 (SUMO E1 enzyme): 1.85 ± 0.96 µM
